Laboratory results published in patent US5424456A, “N-arylalkylderivatives of 2-aminomethyl-2,3-dihydro-1,4-benzodioxine and the process of preparation thereof” (Vyzkumny Ustav Pro Farmacii A Biochemii s.p., priority 1991, dated 1995).

Columns and labels:
[1] = tested on: blood pressure; test: Hypotensive activity, pentobarbital anaesthesized rabbits; type: in vivo, rabbit
From the text: a) The blood pressure of pentobarbital anaesthesized rabbits was registered invasively in arteria femoralis. The average decrease in systolic (SBP) and diastolic (DBP) blood pressure expressed in per cents of the starting blood pressure level after intravenous and oral administration is shown in Tables 3 and 4.

[2] = target: T1, α-adrenergic (Rattus norvegicus, UniProt P23944); test: α-adrenergic blocking activity, norepinephrine-induced contraction of helically cut rat aortic strip; conditions: 37° C., cumulative doses, read-out: IC50 (concentration causing 50% relaxation)
T1 construct: helically cut rat aortic strip; from tissue; host or cells: rat aorta (helically cut strip)
T1 sequence (P23944 1-561): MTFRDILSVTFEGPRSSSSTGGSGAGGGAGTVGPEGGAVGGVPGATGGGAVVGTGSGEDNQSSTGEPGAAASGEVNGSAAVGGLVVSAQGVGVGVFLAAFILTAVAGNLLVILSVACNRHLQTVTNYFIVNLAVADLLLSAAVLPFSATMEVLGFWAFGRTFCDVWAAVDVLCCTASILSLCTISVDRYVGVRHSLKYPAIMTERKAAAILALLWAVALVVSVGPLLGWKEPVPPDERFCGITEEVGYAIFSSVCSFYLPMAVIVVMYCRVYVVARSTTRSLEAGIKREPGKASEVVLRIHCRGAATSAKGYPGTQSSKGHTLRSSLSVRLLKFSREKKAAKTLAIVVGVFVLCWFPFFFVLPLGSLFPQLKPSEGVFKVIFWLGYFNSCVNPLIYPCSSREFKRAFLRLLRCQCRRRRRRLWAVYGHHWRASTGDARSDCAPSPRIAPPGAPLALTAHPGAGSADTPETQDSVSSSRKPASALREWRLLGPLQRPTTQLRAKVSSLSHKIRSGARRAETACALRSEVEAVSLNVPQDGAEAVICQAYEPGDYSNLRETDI
Procedure: a) The α-adrenergic blocking activity of the compounds was tested using a helically cut rat aortic strip in a Krebs-Henselheit solution at 37° C., bubbled with a mixture of 95% O2 and 5% CO2. Norepinephrine induced contractions were detected isometrically. The compounds were added in cumulative doses and the relaxing activity was expressed in per cents of the maximum norepinephrine contraction.

[3] = tested on: blood pressure; test: Hypotensive activity, conscious monkeys; type: in vivo, Macaca mulatta
Procedure: c) The blood pressure of conscious monkeys (Macaca mulatta) was measured non-invasively on the arm. The average decrease in systolic (SBP) and diastolic (DBP) blood pressure after intravenous and oral administration was expressed in per cents of the starting blood pressure.

[4] = tested on: α-adrenergic; test: α-adrenergic blocking activity, postdecapitation muscular contractions in rats; type: in vivo, rat; conditions: i.v., 4.2 g/kg (so in the source), 30 minutes prior to decapitation
Procedure: b) The α-adrenergic blocking activity of compounds VUFB 17951 and VUFB 17959 was also shown in the test of influencing the postdecapitation muscular contractions in rats. The test compounds were administered intravenously in the dose of 4.6 mg/kg for VUFB 17951 and […] for VUFB 17959.

[5] = tested on: blood pressure; test: Hypotensive activity, pentobarbital anaesthesized dogs; type: in vivo, dog
From the text: b) The blood pressure of pentobarbital anaesthesized dogs was registered invasively in arteria femoralis. The average decrease in systolic (SBP) arid diastolic (DBP) blood pressure expressed in per cents of the starting blood pressure level after intravenous and oral administration is shown in Tables 5 and 6.

[6] = p.o., 10.0 mg/kg, value 1 of 5 (heads 30/60/120/180 min)
[7] = p.o., 10.0 mg/kg, value 2 of 5 (heads 30/60/120/180 min)
[8] = p.o., 10.0 mg/kg, value 3 of 5 (heads 30/60/120/180 min)
[9] = p.o., 10.0 mg/kg, value 4 of 5 (heads 30/60/120/180 min)
[10] = p.o., 10.0 mg/kg, value 5 of 5 (heads 30/60/120/180 min)
[11] = p.o., 50.0 mg/kg, value 1 of 5 (heads 30/60/120/180 min)
[12] = p.o., 50.0 mg/kg, value 2 of 5 (heads 30/60/120/180 min)
[13] = p.o., 50.0 mg/kg, value 3 of 5 (heads 30/60/120/180 min)
[14] = p.o., 50.0 mg/kg, value 4 of 5 (heads 30/60/120/180 min)
[15] = p.o., 50.0 mg/kg, value 5 of 5 (heads 30/60/120/180 min)
[16] = i.v., 0.45 mg/kg, value 1 of 5 (heads 5/30/60/180 min; probably 1 min)
[17] = i.v., 0.45 mg/kg, value 2 of 5 (heads 5/30/60/180 min; probably 5 min)
[18] = i.v., 0.45 mg/kg, value 3 of 5 (heads 5/30/60/180 min; probably 30 min)
[19] = i.v., 0.45 mg/kg, value 4 of 5 (heads 5/30/60/180 min; probably 60 min)
[20] = i.v., 0.45 mg/kg, value 5 of 5 (heads 5/30/60/180 min; probably 180 min)
[21] = i.v., 4.5 mg/kg, value 1 of 5 (heads 5/30/60/180 min; probably 1 min)
[22] = i.v., 4.5 mg/kg, value 2 of 5 (heads 5/30/60/180 min; probably 5 min)
[23] = i.v., 4.5 mg/kg, value 3 of 5 (heads 5/30/60/180 min; probably 30 min)
[24] = i.v., 4.5 mg/kg, value 4 of 5 (heads 5/30/60/180 min; probably 60 min)
[25] = i.v., 4.5 mg/kg, value 5 of 5 (heads 5/30/60/180 min; probably 180 min)

## Cc1ccccc1C(C#N)(CCCNCC1COc2ccccc2O1)C(C)C (racemic) [VUFB 17959, 5-(2,3-dihydro-1,4-benzodioxin-2-ylmethylamino)-2-isopropyl-2-(2-methylphenyl) valeronitrile]
[1]; i.v., 1.0 mg/kg, 1 min
  decrease in diastolic blood pressure (DBP): -51 per cents
  decrease in systolic blood pressure (SBP): -47 per cents
[1]; i.v., 1.0 mg/kg, 5 min
  decrease in diastolic blood pressure (DBP): -22 per cents
  decrease in systolic blood pressure (SBP): -23 per cents
[1]; i.v., 1.0 mg/kg, 30 min
  decrease in diastolic blood pressure (DBP): -21 per cents
  decrease in systolic blood pressure (SBP): -22 per cents
[1]; i.v., 1.0 mg/kg, 60 min
  decrease in diastolic blood pressure (DBP): -25 per cents
  decrease in systolic blood pressure (SBP): -14 per cents
[1]; i.v., 1.0 mg/kg, 180 min
  decrease in diastolic blood pressure (DBP): -18 per cents
  decrease in systolic blood pressure (SBP): -8 per cents
[1]; i.v., 5.0 mg/kg, 1 min
  decrease in diastolic blood pressure (DBP): -69 per cents
  decrease in systolic blood pressure (SBP): -60 per cents
[1]; i.v., 5.0 mg/kg, 5 min
  decrease in diastolic blood pressure (DBP): -39 per cents
  decrease in systolic blood pressure (SBP): -35 per cents
[1]; i.v., 5.0 mg/kg, 30 min
  decrease in diastolic blood pressure (DBP): -31 per cents
  decrease in systolic blood pressure (SBP): -26 per cents
[1]; i.v., 5.0 mg/kg, 60 min
  decrease in diastolic blood pressure (DBP): -29 per cents
  decrease in systolic blood pressure (SBP): -27 per cents
[1]; i.v., 5.0 mg/kg, 180 min
  decrease in diastolic blood pressure (DBP): -33 per cents
  decrease in systolic blood pressure (SBP): -25 per cents
[1]; [6]
  decrease in diastolic blood pressure (DBP): -2 per cents
  decrease in systolic blood pressure (SBP): -2 per cents
[1]; [7]
  decrease in diastolic blood pressure (DBP): 0 per cents
  decrease in systolic blood pressure (SBP): -3 per cents
[1]; [8]
  decrease in diastolic blood pressure (DBP): -3 per cents
  decrease in systolic blood pressure (SBP): -4 per cents
[1]; [9]
  decrease in diastolic blood pressure (DBP): -8 per cents
  decrease in systolic blood pressure (SBP): -1 per cents
[1]; [10]
  decrease in diastolic blood pressure (DBP): -10 per cents
  decrease in systolic blood pressure (SBP): +3 per cents
[1]; [11]
  decrease in diastolic blood pressure (DBP): -6 per cents
  decrease in systolic blood pressure (SBP): -9 per cents
[1]; [12]
  decrease in diastolic blood pressure (DBP): -12 per cents
  decrease in systolic blood pressure (SBP): -18 per cents
[1]; [13]
  decrease in diastolic blood pressure (DBP): -18 per cents
  decrease in systolic blood pressure (SBP): -26 per cents
[1]; [14]
  decrease in diastolic blood pressure (DBP): -18 per cents
  decrease in systolic blood pressure (SBP): -29 per cents
[1]; [15]
  decrease in diastolic blood pressure (DBP): -18 per cents
  decrease in systolic blood pressure (SBP): -31 per cents
[2]
  IC50: 25 µM
[3]; i.v., 0.25 mg/kg, 1 min
  decrease in diastolic blood pressure (DBP): -4 per cents
  decrease in systolic blood pressure (SBP): -1 per cents
[3]; i.v., 0.25 mg/kg, 5 min
  decrease in diastolic blood pressure (DBP): -16 per cents
  decrease in systolic blood pressure (SBP): -12 per cents
[3]; i.v., 0.25 mg/kg, 30 min
  decrease in diastolic blood pressure (DBP): -24 per cents
  decrease in systolic blood pressure (SBP): -22 per cents
[3]; i.v., 0.25 mg/kg, 60 min
  decrease in diastolic blood pressure (DBP): -20 per cents
  decrease in systolic blood pressure (SBP): -17 per cents
[3]; i.v., 0.25 mg/kg, 180 min
  decrease in diastolic blood pressure (DBP): -7 per cents
  decrease in systolic blood pressure (SBP): -5 per cents
[3]; i.v., 1.0 mg/kg, 1 min
  decrease in diastolic blood pressure (DBP): -34 per cents
  decrease in systolic blood pressure (SBP): -28 per cents
[3]; i.v., 1.0 mg/kg, 5 min
  decrease in diastolic blood pressure (DBP): -38 per cents
  decrease in systolic blood pressure (SBP): -31 per cents
[3]; i.v., 1.0 mg/kg, 30 min
  decrease in diastolic blood pressure (DBP): -42 per cents
  decrease in systolic blood pressure (SBP): -31 per cents
[3]; i.v., 1.0 mg/kg, 60 min
  decrease in diastolic blood pressure (DBP): -27 per cents
  decrease in systolic blood pressure (SBP): -24 per cents
[3]; i.v., 1.0 mg/kg, 180 min
  decrease in diastolic blood pressure (DBP): -14 per cents
  decrease in systolic blood pressure (SBP): -8 per cents
[3]; p.o., 10.0 mg/kg, 5-6 hours
  decrease in diastolic blood pressure (DBP): -10 per cents
  decrease in systolic blood pressure (SBP): -11 per cents
[3]; p.o., 10.0 mg/kg, 0.5 hours
  decrease in diastolic blood pressure (DBP): -16 per cents
  decrease in systolic blood pressure (SBP): -20 per cents
[3]; p.o., 10.0 mg/kg, 1 hours
  decrease in diastolic blood pressure (DBP): -15 per cents
  decrease in systolic blood pressure (SBP): -15 per cents
[3]; p.o., 10.0 mg/kg, 3 hours
  decrease in diastolic blood pressure (DBP): -16 per cents
  decrease in systolic blood pressure (SBP): -17 per cents
[3]; p.o., 10.0 mg/kg, 24 hours
  decrease in diastolic blood pressure (DBP): +5 per cents
  decrease in systolic blood pressure (SBP): +1 per cents
[4]
  decrease in number of postdecapitation contractions: highly significant decrease in number of postdecapitation contractions
[5]; [16]
  decrease in diastolic blood pressure (DBP): -52 per cents
  decrease in systolic blood pressure (SBP): -16 per cents
[5]; [17]
  decrease in diastolic blood pressure (DBP): -23 per cents
  decrease in systolic blood pressure (SBP): -23 per cents
[5]; [18]
  decrease in diastolic blood pressure (DBP): -16 per cents
  decrease in systolic blood pressure (SBP): -14 per cents
[5]; [19]
  decrease in diastolic blood pressure (DBP): -16 per cents
  decrease in systolic blood pressure (SBP): -13 per cents
[5]; [20]
  decrease in diastolic blood pressure (DBP): -2 per cents
  decrease in systolic blood pressure (SBP): -6 per cents
[5]; [21]
  decrease in diastolic blood pressure (DBP): -63 per cents
  decrease in systolic blood pressure (SBP): -43 per cents
[5]; [22]
  decrease in diastolic blood pressure (DBP): -46 per cents
  decrease in systolic blood pressure (SBP): -43 per cents
[5]; [23]
  decrease in diastolic blood pressure (DBP): -29 per cents
  decrease in systolic blood pressure (SBP): -31 per cents
[5]; [24]
  decrease in diastolic blood pressure (DBP): -25 per cents
  decrease in systolic blood pressure (SBP): -23 per cents
[5]; [25]
  decrease in diastolic blood pressure (DBP): -14 per cents
  decrease in systolic blood pressure (SBP): -17 per cents
[5]; p.o., 4.2 mg/kg, 15 min
  decrease in diastolic blood pressure (DBP): -5 per cents
  decrease in systolic blood pressure (SBP): -5 per cents
[5]; p.o., 4.2 mg/kg, 30 min
  decrease in diastolic blood pressure (DBP): -20 per cents
  decrease in systolic blood pressure (SBP): -16 per cents
[5]; p.o., 4.2 mg/kg, 60 min
  decrease in diastolic blood pressure (DBP): -20 per cents
  decrease in systolic blood pressure (SBP): -18 per cents
[5]; p.o., 4.2 mg/kg, 120 min
  decrease in diastolic blood pressure (DBP): -20 per cents
  decrease in systolic blood pressure (SBP): -20 per cents
[5]; p.o., 4.2 mg/kg, 300 min
  decrease in diastolic blood pressure (DBP): -21 per cents
  decrease in systolic blood pressure (SBP): -23 per cents
